For this test, the system named is MDA-MB-231. In words: Cytotoxicity against human MDA-MB-231 cells. It counts as functional, cell-based.

Take `COc1ccc2c(C=O)c(-c3ccccc3)[nH]c2c1`: the IC50 was 240 nM (read-out: IC50) and 240 nM (read-out: pIC50 (converted)).

As for `COc1ccc(-c2[nH]c3cc(OC)c(OC)cc3c2C=O)cc1`, the IC50 is 220 nM (read-out: IC50) and 220 nM (read-out: pIC50 (converted)).

Consider `CCC(C)c1ccc2[nH]c(-c3ccc(OC)cc3)c(C=O)c2c1` (stereo unspecified), for which the IC50 by setting is: (read-out: IC50) 72 nM; (read-out: pIC50 (converted)) 71.9 nM.

Values taken from ChEMBL document CHEMBL1152493, “CoMFA and docking studies of 2-phenylindole derivatives with anticancer activity” (Eur J Med Chem, 2009).
